Data as given in PMC9516332 (Frontiers in Oncology, 2022).
Read-outs that look alike come from different tables or passages of the source.

Tests used:
[1] = system: 134 cancer cell lines; experiment: Cell viability assay (ATPlite, 72 hours), IC50 on cancer cell line panel
[2] = system: AP-1060 (ETV6-NTRK3); experiment: Cell viability assay; settings: read-out: IC50 in cell proliferation assay

SMILES: CC(=O)Nc1cccc(-n2c(=O)n(C3CC3)c(=O)c3c(Nc4ccc(I)cc4F)n(C)c(=O)c(C)c32)c1 [trametinib]
- IC50 ([1]; Homo sapiens, MV4-11, read-out: IC50 in cell proliferation assay, MV4-11 cell line (FLT3 ITD)): 0.022 µM
- IC50 ([1]; Homo sapiens, MeWo, read-out: IC50 in cell proliferation assay, MeWo cell line): 0.036 µM
- IC50 ([1]; Homo sapiens, NCCIT, read-out: IC50 in cell proliferation assay, NCC-IT cell line): 0.871 µM
- IC50 ([1]; Homo sapiens, NCI-H82, read-out: IC50 in cell proliferation assay, cell line NCI-H82): > 28.2 µM
- IC50 ([1]; Homo sapiens, NCI-H460, read-out: IC50 in cell proliferation assay, NCI-H460 cell line): 0.033 µM
- IC50 ([1]; Homo sapiens, NCI-H661, read-out: IC50 in cell proliferation assay, NCI-H661 cell line): > 28.2 µM
- IC50 ([1]; Homo sapiens, NCI-H716, read-out: IC50 in cell proliferation assay, cell line NCI-H716 (FGFR2-COL14A1)): 0.034 µM
- IC50 ([1]; Homo sapiens, NCI-H1650, read-out: IC50 in cell proliferation assay, NCI-H1650 cell line (EGFR exon19del)): 0.075 µM
- IC50 ([1]; Homo sapiens, NCI-H1975, read-out: IC50 in cell proliferation assay, NCI-H1975 cell line (EGFR p.L858R + p.T790M)): 0.085 µM
- IC50 ([1]; Homo sapiens, NCI-H2228, read-out: IC50 in cell proliferation assay, NCI-H2228 cell line (EML4-ALK)): 0.265 µM
- IC50 ([1]; Homo sapiens, OVCAR-3, read-out: IC50 in cell proliferation assay, cell line OVCAR-3): > 28.2 µM
- IC50 ([1]; Homo sapiens, PFSK-1, read-out: IC50 in cell proliferation assay, cell line PFSK-1): > 28.2 µM
- IC50 ([1]; Homo sapiens, RL95-2, read-out: IC50 in cell proliferation assay, cell line RL95-2 (EGFR p.A289V)): 0.00155 µM
- IC50 ([1]; Homo sapiens, RPMI-7951, read-out: IC50 in cell proliferation assay, cell line RPMI-7951 (BRAF p.V600E)): 0.017 µM
- IC50 ([1]; Homo sapiens, RS4-11, read-out: IC50 in cell proliferation assay, cell line RS4;11): > 28.2 µM
- IC50 ([1]; Homo sapiens, Rec1, read-out: IC50 in cell proliferation assay, cell line REC-1): 12.3 µM
- IC50 ([1]; Homo sapiens, SHP77, read-out: IC50 in cell proliferation assay, cell line SHP-77): > 28.2 µM
- IC50 ([1]; Homo sapiens, SK-BR-3, read-out: IC50 in cell proliferation assay, cell line SK-BR-3 (ERBB2 amplification)): > 31.6 µM
- IC50 ([1]; Homo sapiens, SK-N-AS, read-out: IC50 in cell proliferation assay, cell line SK-N-AS): 0.004 µM
- IC50 ([1]; Homo sapiens, SK-N-FI, read-out: IC50 in cell proliferation assay, cell line SK-N-FI): 0.034 µM
- IC50 ([1]; Homo sapiens, SK-N-MC, read-out: IC50 in cell proliferation assay, cell line SK-N-MC): > 31.6 µM
- IC50 ([1]; Homo sapiens, SK-N-SH, read-out: IC50 in cell proliferation assay, cell line SK-N-SH (ALK p.F1174L)): 0.017 µM
- IC50 ([1]; Homo sapiens, SNU-5, read-out: IC50 in cell proliferation assay, cell line SNU-5 (MET amplification)): 0.012 µM
- IC50 ([1]; Homo sapiens, SNU-16, read-out: IC50 in cell proliferation assay, cell line SNU-16 (FGFR2 amplification)): 0.146 µM
- IC50 ([1]; Homo sapiens, SNU-C2B, read-out: IC50 in cell proliferation assay, cell line SNU-C2B (EGFR p.R165Q)): 0.041 µM
- IC50 ([1]; Homo sapiens, SU-DHL-1, read-out: IC50 in cell proliferation assay, cell line SU-DHL-1 (NPM1-ALK)): 0.279 µM
- IC50 ([1]; Homo sapiens, SU-DHL-6, read-out: IC50 in cell proliferation assay, cell line SU-DHL-6): 0.027 µM
- IC50 ([1]; Homo sapiens, SUP-T1, read-out: IC50 in cell proliferation assay, cell line SUP-T1): > 28.2 µM
- IC50 ([1]; Homo sapiens, SW48, read-out: IC50 in cell proliferation assay, cell line SW48 (EGFR p.G719S)): 0.006 µM
- IC50 ([1]; Homo sapiens, SW480, read-out: IC50 in cell proliferation assay, cell line SW480): 0.23 µM
- IC50 ([1]; Homo sapiens, SW626, read-out: IC50 in cell proliferation assay, cell line SW626): 0.059 µM
- IC50 ([1]; Homo sapiens, SW780, read-out: IC50 in cell proliferation assay, cell line SW780 (FGFR3-BAIAP2L1)): 0.02 µM
- IC50 ([1]; Homo sapiens, SW837, read-out: IC50 in cell proliferation assay, cell line SW837): 0.098 µM
- IC50 ([1]; Homo sapiens, SW872, read-out: IC50 in cell proliferation assay, cell line SW872 (BRAF p.V600E)): 0.023 µM
- IC50 ([1]; Homo sapiens, SW900, read-out: IC50 in cell proliferation assay, cell line SW900): 0.111 µM
- IC50 ([1]; Homo sapiens, SW948, read-out: IC50 in cell proliferation assay, cell line SW948): 0.026 µM
- IC50 ([1]; Homo sapiens, SW982, read-out: IC50 in cell proliferation assay, cell line SW982 (BRAF p.V600E)): 0.929 µM
- IC50 ([1]; Homo sapiens, SW-620, read-out: IC50 in cell proliferation assay, cell line SW620): 0.017 µM
- IC50 ([1]; Homo sapiens, T98G, read-out: IC50 in cell proliferation assay, cell line T98G): > 28.2 µM
- IC50 ([1]; Homo sapiens, TCC-SUP, read-out: IC50 in cell proliferation assay, cell line TCCSUP): 1.45 µM
- IC50 ([1]; Homo sapiens, THP-1, read-out: IC50 in cell proliferation assay, cell line THP-1): 0.001 µM
- IC50 ([1]; Homo sapiens, U2OS, read-out: IC50 in cell proliferation assay, cell line U2OS): 0.004 µM
- IC50 ([1]; Homo sapiens, U-87 MG, read-out: IC50 in cell proliferation assay, cell line U-87MG ATCC): 0.245 µM
- IC50 ([1]; Homo sapiens, U-118-MG, read-out: IC50 in cell proliferation assay, cell line U-118MG): 0.151 µM
- IC50 ([1]; Homo sapiens, UMUC3, read-out: IC50 in cell proliferation assay, cell line UM-UC-3): 0.021 µM
- IC50 ([1]; Hs766T, read-out: IC50 in cell proliferation assay, Hs 766T cell line): 0.00234 µM
- IC50 ([1]; L-82, read-out: IC50 in cell proliferation assay, L-82 cell line (NPM1-ALK)): 0.086 µM
- IC50 ([1]; Rh30, read-out: IC50 in cell proliferation assay, cell line Rh30): 0.237 µM
- IC50 ([1]; read-out: IC50 in cell proliferation assay, 11-18 cell line (EGFR p.L858R)): > 31.6 µM
- IC50 ([1]; read-out: IC50 in cell proliferation assay, Hs 852.T cell line): 0.218 µM
- IC50 ([1]; read-out: IC50 in cell proliferation assay, JAR cell line): > 28.2 µM
- IC50 ([1]; read-out: IC50 in cell proliferation assay, cell line 5637): 0.297 µM
- IC50 ([1]; read-out: IC50 in cell proliferation assay, cell line A-388): 0.099 µM
- IC50 ([1]; read-out: IC50 in cell proliferation assay, cell line DB): 18.9 µM
- IC50 ([1]; read-out: IC50 in cell proliferation assay, cell line DEL (NPM1-ALK)): > 31.6 µM
- IC50 ([1]; read-out: IC50 in cell proliferation assay, cell line ES-2 (BRAF p.V600E)): 0.007 µM
- IC50 ([1]; read-out: IC50 in cell proliferation assay, cell line PA-1): 0.666 µM
- IC50 ([1]; read-out: IC50 in cell proliferation assay, cell line PC-3): > 28.2 µM
- IC50 ([1]; read-out: IC50 in cell proliferation assay, cell line RD): 0.004 µM
- IC50 ([1]; read-out: IC50 in cell proliferation assay, cell line RKO (BRAF p.V600E)): 0.008 µM
- IC50 ([1]; read-out: IC50 in cell proliferation assay, cell line RL): > 28.2 µM
- IC50 ([1]; read-out: IC50 in cell proliferation assay, cell line RT-4 (FGFR3-TACC3)): 0.072 µM
- IC50 ([1]; read-out: IC50 in cell proliferation assay, cell line SR (NPM1-ALK)): 0.936 µM
- IC50 ([1]; read-out: IC50 in cell proliferation assay, cell line T24): 0.005 µM
- IC50 ([1]; read-out: IC50 in cell proliferation assay, cell line TT (RET p.C634W)): 1.05 µM
- IC50 ([1]; read-out: IC50 in cell proliferation assay, cell line VA-ES-BJ): 0.089 µM
- IC50 [2]: 0.291 µM
